Measurements reported in ChEMBL document CHEMBL5724558, “Image-based profiling of drug vulnerabilities in CRC organoids” (2024).
Several values for one entry are separate records, joined by “and”; a condition that tells them apart may be missing. Equal values may be shown once.

Tests used:
Type in all cases: functional, Homo sapiens
Design in all cases: dose or concentration left out as unconfirmed
Colon cancer organoid [1] = assay: (§1) Image-based profiling of donated chemical probes and chemogenomic kinase set in O06 CRC organoid. Image analysis is performed on the sum area metric, and the data were normalized to the DMSO control. After imaging the organoid viability is measured using the OneGloEX Luciferase Assay System. The normalized viability data and sum area are reported.
Colon cancer organoid [2] = assay: as §1, with “O21” for “O06”
Colon cancer organoid [3] = assay: as §1, with “O09” for “O06”

Row | SMILES | Cell Viability (Colon cancer organoid [1]; Replication number 1) | Cell Viability (Colon cancer organoid [1]; Replication number 2) | Cell Viability (Colon cancer organoid [2]; Replication number 1) | Cell Viability (Colon cancer organoid [2]; Replication number 2) | Cell Viability (Colon cancer organoid [3]; Replication number 1) | Cell Viability (Colon cancer organoid [3]; Replication number 2)
1 | O=C(O)c1ccc(-c2coc3ncc(-c4ccccc4)cc23)cc1Cl | 151.185% and 107.979% | 124.809% and 78.3539% | 190.076% and 113.91% | 188.696% and 75.9402% | 308.758% and 113.836% | 206.023% and 93.0484%
2 | c1ccc2oc(-c3csc(C4CCN(Cc5nc6ncccc6[nH]5)CC4)n3)cc2c1 | 71.3349% and 100.567% | 106.728% and 127.102% | 94.2166% and 105.311% | 87.22% and 87.1856% | 82.621% and 84.4067% | 113.991% and 112.807%
3 | Cc1ccc2nc(NCCN)c3ncc(C)n3c2c1.O=C(O)C(F)(F)F.O=C(O)C(F)(F)F | 119.625% and 106.83% | 110.324% and 90.8997% | 135.691% and 125.993% | 139.56% and 141.634% | 111% and 93.003% | 101.477% and 77.7459%
4 | CN(C(=O)c1cnn2cccnc12)c1cc2c(cc1N1CCOCC1)C(=O)N(C[C@@H](F)C(C)(C)O)C2 | 66.1312% and 81.8624% | 88.8257% and 96.1076% | 91.4071% and 91.6697% | 87.4763% and 99.932% | 67.6561% and 89.4711% | 97.2316% and 93.7748%
5 | c1ccc(C2CCN(c3cnc4c(N5CCOCC5)nccn34)CC2)cc1 | 145.966% and 120.992% | 117.4% and 104.103% | 115.301% and 98.0422% | 102.772% and 73.1066% | 180.042% and 107.897% | 162.986% and 102.452%
6 | COc1cc(Nc2nc(C)cc(-c3cnn4nc(OC)ccc34)n2)cc(C(F)(F)F)c1 | 101.755% and 109.64% | 94.2101% and 91.9205% | 100.392% and 88.9748% | 126.257% and 100.876% | 104.965% and 91.5636% | 103.466% and 113.093%
7 | CN(C)C(=O)Cn1cc(-c2ccc(-c3nnc4ccccn34)cc2)cn1 | 116.057% and 113.952% | 85.0591% and 113.728% | 108.728% and 107.596% | 93.8353% and 96.1497% | 166.343% and 115.942% | 81.4375% and 98.5321%
8 | CCOc1ccc(S(=O)(=O)Nc2ccc(Cl)cc2C#Cc2cnc(C(=O)[O-])cc2OC)c2ncccc12.[K+] | 90.5182% and 89.6356% | 107.269% and 105.718% | 102.626% and 139.142% | 112.375% and 81.0673% | 79.533% and 90.784% | 112.265% and 100.119%
9 | Cc1cc(CN)cc(C)c1-c1ncn(C)c1-c1ccnc2cc(F)ccc12.Cl | 218.867% and 141.584% | 205.957% and 111.843% | 125.215% and 107.577% | 113.008% and 89.6778% | 165.285% and 103.632% | 176.587% and 123.725%
10 | CC1=CC(C)=[N+]2C1=C(CCCCc1cn(CC(=O)N3CCc4nc(NC(=O)[C@H]5CCN(C#N)C5)sc4C3)nn1)c1c(C)cc(C)n1[B-]2(F)F | 105.892% and 120.972% | 115.912% and 117.492% | 110.953% and 108.585% | 96.9264% and 89.225% | 63.7608% and 86.8451% | 67.8399% and 91.9905%
11 | COc1cc(OC)cc(-c2noc(N3CCN(C)C4(CCN(c5ccccc5)CC4)C3)n2)c1 | 202.541% and 143.275% | 168.695% and 116.861% | 113.13% and 104.05% | 103.365% and 96.1217% | 101.833% and 98.7635% | 122.499% and 95.7871%
12 | COc1ccccc1C(=O)Nc1cc2c(cc1N1CCNCC1C)n(C)c(=O)n2C (stereo not drawn) | 207.592% and 157.772% | 161.771% and 130.961% | 113.606% and 138.145% | 93.8896% and 107.936% | 86.1318% and 106.414% | 94.809% and 101.774%
13 | COc1cccc2c1C(=O)c1c(O)c3c(c(O)c1C2=O)CC(O)(C(=O)CO)CC3OC1CC(N)C(O)C(C)O1.Cl (stereo not drawn) | 10.231% and 27.4494% |  | 24.67% and 46.8716% | 19.9524% and 41.0435% | 17.7261% | 21.2234%
14 | CCCS(=O)(=O)c1cc(NC2CC2)nc(-c2ccc3c(ccn3C3CC(C)(C)NC(C)(C)C3)c2)n1 | 40.3908% and 48.3221% | 87.7215% and 108.975% | 82.8925% and 103.462% | 85.2127% and 87.5298% | 103.467% and 88.0989% | 115.748% and 108.331%
